We go through two compounds from ChEMBL document CHEMBL4673225, “Highly Selective PTK2 Proteolysis Targeting Chimeras to Probe Focal Adhesion Kinase Scaffolding Functions” (J Med Chem, 2019).

Active and inactive are the calls of the source. The calls are words filed in the database; no cut-off is given here.

Experiment [1] is described as follows: cells. As to conditions: Homo sapiens, HuH-1, 144 h, read-out: pIC50 (converted).
Description: Antiproliferative activity against human HuH-1 cells incubated for 6 days by CellTiter-Glo luminescent cell viability assay
A further experiment concerns SK-HEP1. In words: cells. As to conditions: Homo sapiens, SK-HEP1, 144 h, read-out: pIC50 (converted).
The next experiment relates to SNU-423. Briefly: cells. As to conditions: Homo sapiens, SNU-423, 144 h, read-out: pIC50 (converted).
The subject of the next experiment is SNU-398. Briefly: cells. As to conditions: Homo sapiens, SNU-398, 144 h, read-out: pIC50 (converted).
The next experiment relates to SNU-387. In words: cells. As to conditions: Homo sapiens, SNU-387, 144 h, read-out: pIC50 (converted).
A short description of experiment [2]: cells. As to conditions: Homo sapiens, HLF1, 144 h, read-out: pIC50 (converted).
Description: Antiproliferative activity against human HLF1 cells incubated for 6 days by CellTiter-Glo luminescent cell viability assay
Another experiment relates to HepG2. In words: cells. As to conditions: Homo sapiens, HepG2, 144 h, read-out: pIC50 (converted).
Experiment [3] is described as follows: cells. As to conditions: Homo sapiens, Hep3B, 144 h, read-out: pIC50 (converted).
Description: Antiproliferative activity against human Hep3B2.1-7 cells incubated for 6 days by CellTiter-Glo luminescent cell viability assay
In another experiment the test system is HLE. Briefly: cells. As to conditions: Homo sapiens, 144 h, read-out: pIC50 (converted).
For another experiment, the system named is Huh-7. Briefly: cells. As to conditions: Homo sapiens, Huh-7, 144 h, read-out: pIC50 (converted).
The subject of another experiment is HuCCT-1. Briefly: cells. As to conditions: Homo sapiens, HuCCT-1, 144 h, read-out: pIC50 (converted).
The target in experiment [4] is von Hippel-Lindau disease tumor suppressor/Focal adhesion kinase 1 (Homo sapiens, UniProt Q05397+P40337). In words: Protac activity at VHL/PTK2 in human A549 cells assessed as induction of PTK2 degradation at 1 to 100000 nM incubated for 18 hrs by protein capillary electrophoresis method. The class given is cell-based. As to conditions: dose 1-100000 nM.
Sequence of von Hippel-Lindau disease tumor suppressor/Focal adhesion kinase 1 (P40337 whole entry partner): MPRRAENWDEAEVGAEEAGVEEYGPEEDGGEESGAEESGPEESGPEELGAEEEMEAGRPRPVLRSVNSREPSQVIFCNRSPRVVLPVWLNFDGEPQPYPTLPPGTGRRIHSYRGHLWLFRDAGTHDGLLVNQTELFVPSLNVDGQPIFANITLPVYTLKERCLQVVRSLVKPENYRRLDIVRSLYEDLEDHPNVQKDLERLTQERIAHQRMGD
Sequence of von Hippel-Lindau disease tumor suppressor/Focal adhesion kinase 1 (Q05397 2-1052 limits assumed): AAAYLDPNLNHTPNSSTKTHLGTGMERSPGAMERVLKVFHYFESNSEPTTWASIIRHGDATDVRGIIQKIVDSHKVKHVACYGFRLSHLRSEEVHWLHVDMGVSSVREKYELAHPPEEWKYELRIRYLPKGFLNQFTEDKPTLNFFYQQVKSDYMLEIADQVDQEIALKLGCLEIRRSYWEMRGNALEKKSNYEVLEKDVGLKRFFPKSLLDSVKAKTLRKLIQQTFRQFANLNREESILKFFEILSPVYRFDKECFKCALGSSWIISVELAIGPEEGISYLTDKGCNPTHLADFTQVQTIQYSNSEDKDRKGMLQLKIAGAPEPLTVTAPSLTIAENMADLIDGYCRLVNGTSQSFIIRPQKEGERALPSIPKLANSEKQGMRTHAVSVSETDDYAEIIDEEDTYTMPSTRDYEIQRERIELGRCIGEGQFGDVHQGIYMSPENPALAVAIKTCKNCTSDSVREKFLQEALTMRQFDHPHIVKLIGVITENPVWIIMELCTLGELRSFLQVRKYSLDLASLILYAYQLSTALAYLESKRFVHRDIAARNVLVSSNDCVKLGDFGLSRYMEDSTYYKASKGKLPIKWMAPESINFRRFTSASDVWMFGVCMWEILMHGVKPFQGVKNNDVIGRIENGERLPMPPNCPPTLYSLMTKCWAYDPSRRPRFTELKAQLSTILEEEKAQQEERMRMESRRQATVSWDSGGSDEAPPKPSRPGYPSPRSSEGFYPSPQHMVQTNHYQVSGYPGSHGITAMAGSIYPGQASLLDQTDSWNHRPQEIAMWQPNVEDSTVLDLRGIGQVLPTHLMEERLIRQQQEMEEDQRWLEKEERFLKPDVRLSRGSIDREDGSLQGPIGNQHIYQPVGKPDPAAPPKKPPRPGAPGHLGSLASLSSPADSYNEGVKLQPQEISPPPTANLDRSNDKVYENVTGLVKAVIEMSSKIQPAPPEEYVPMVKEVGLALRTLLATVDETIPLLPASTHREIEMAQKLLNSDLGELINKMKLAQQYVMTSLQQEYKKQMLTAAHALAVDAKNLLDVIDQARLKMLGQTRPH

Description for HLE: Antiproliferative activity against human HLE cells incubated for 6 days by CellTiter-Glo luminescent cell viability assay
Description for HepG2: Antiproliferative activity against human HepG2 cells incubated for 6 days by CellTiter-Glo luminescent cell viability assay
Description for HuCCT-1: Antiproliferative activity against human HuCCT-1 cells incubated for 6 days by CellTiter-Glo luminescent cell viability assay
Description for Huh-7: Antiproliferative activity against human Huh-7 cells incubated for 6 days by CellTiter-Glo luminescent cell viability assay
Description for SK-HEP1: Antiproliferative activity against human SK-HEP1 cells incubated for 6 days by CellTiter-Glo luminescent cell viability assay
Description for SNU-387: Antiproliferative activity against human SNU-387 cells incubated for 6 days by CellTiter-Glo luminescent cell viability assay
Description for SNU-398: Antiproliferative activity against human SNU-398 cells incubated for 6 days by CellTiter-Glo luminescent cell viability assay
Description for SNU-423: Antiproliferative activity against human SNU-423 cells incubated for 6 days by CellTiter-Glo luminescent cell viability assay

As for `COc1cc(C(=O)NC2CCN(C)CC2)ccc1Nc1ncc(C(F)(F)F)c(Oc2cccc3c2C(=O)CC3)n1`, the IC50 in the experiment “cells [1]” is 3.98 µM; with SK-HEP1, 6.31 µM; in the experiment with SNU-423 it was 3.98 µM; with SNU-398 it was 6.31 µM; in the experiment with SNU-387, 6.31 µM; in “cells [2]”, 3.98 µM. Further, the IC50 was 3.16 µM with HepG2; 5.01 µM in the experiment “cells [3]”; 7.94 µM in the experiment on HLE; 3.98 µM in the experiment with Huh-7; 6.31 µM in the experiment on HuCCT-1.

Consider `COc1cc(C(=O)NCCOCCOCCOCC(=O)N[C@H](C(=O)N2C[C@@H](O)C[C@H]2C(=O)NCc2ccc(-c3scnc3C)cc2)C(C)(C)C)ccc1Nc1ncc(C(F)(F)F)c(Oc2cccc3c2C(=O)CC3)n1`, for which, in experiment [4], the result was inactive.
